Measured values from patent publication US20100075957A1, “AMINODIHYDROTHIAZINE DERIVATIVES SUBSTITUTED WITH A CYCLIC GROUP” (SHIONOGI & CO., LTD., priority 2007, published 2010).
Where two headings read alike, the source gives them in different places.

Molecular target: T1, Recombinant human BACE-1 (Homo sapiens, UniProt P56817)
T1 construct: purchased R&D Systems
Test: Assay of β-secretase-inhibiting activity;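 further: substrate is a peptide carrying biotin and europium cryptate, after the enzyme reaction, Streptavidin-XL665 is added and incubated 1 h at 30 °C before fluorescence reading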
Assay type: biochemical
Conditions: Recombinant human BACE-1 7.4 nM, substrate peptide 18 nM, pH 5.0, 30° C., 3 hours

[1] = time-resolved fluorescence ratio 665/620, read-out: IC50 values (50% inhibitory concentration against the enzymatic activity)

T1 sequence (P56817 46-501): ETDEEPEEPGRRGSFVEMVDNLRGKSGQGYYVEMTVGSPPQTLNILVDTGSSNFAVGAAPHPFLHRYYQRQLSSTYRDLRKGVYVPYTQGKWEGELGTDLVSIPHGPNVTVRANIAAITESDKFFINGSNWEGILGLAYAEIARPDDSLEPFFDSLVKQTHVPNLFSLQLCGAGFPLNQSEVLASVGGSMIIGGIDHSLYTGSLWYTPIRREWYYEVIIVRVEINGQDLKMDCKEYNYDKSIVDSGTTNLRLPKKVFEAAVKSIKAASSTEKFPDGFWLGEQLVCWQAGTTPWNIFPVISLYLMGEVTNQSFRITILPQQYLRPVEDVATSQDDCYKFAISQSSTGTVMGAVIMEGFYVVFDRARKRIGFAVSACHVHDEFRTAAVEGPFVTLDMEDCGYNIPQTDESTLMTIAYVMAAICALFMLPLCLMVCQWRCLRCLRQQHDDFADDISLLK

| SMILES | IC50 [1] | other results |
| --- | --- | --- |
| COc1ncc(NC(=O)c2cnc(C)cn2)cc1[C@]1(C)CCSC(N)=N1 [Compound 680] | – | IC50 (Table 141, read-out: IC50): 0.05 µM |
| Cc1nc(C(=O)Nc2ccc(F)c([C@]3(C)CC(C)(C)SC(N)=N3)c2)co1 [Compound 609] | ≤ 1 µM | – |
| CSc1cnc(C(=O)Nc2ccc(F)c([C@]3(C)CCSC(N)=N3)c2)cn1 [Compound 77] | ≤ 1 µM | – |
| CCCCCc1cnc(C(=O)Nc2ccc(F)c([C@]3(C)CCSC(N)=N3)c2)cn1 [Compound 115] | ≤ 1 µM | – |
| COc1cnc(C(=O)Nc2ccnc([C@]3(C)CCSC(N)=N3)c2)cn1 [Compound 548] | ≤ 1 µM | – |
| Cc1cc2cc(NC(=O)c3ccc(OCCO)cn3)cc([C@]3(C)CCSC(N)=N3)c2o1 [Compound 464] | – | IC50 (Table 140, read-out: IC50): 0.43 µM |
| C[C@@]1(c2cc(NC(=O)c3cnc(N=[N+]=[N-])cn3)ccc2F)CCSC(N)=N1 [Compound 79] | ≤ 1 µM | – |
| CC1(C)C[C@@](C)(c2cc(NC(=O)c3coc(Cl)n3)ccc2F)N=C(N)S1 [Compound 645] | – | IC50 (Table 140, read-out: IC50): 0.2 µM |
| C[C@@]1(c2cc(NC(=O)c3cc4ccccc4o3)ccc2F)CCSC(N)=N1 [Compound 540] | ≤ 1 µM | – |
| Cc1ccc(C(=O)Nc2ccc(F)c([C@]3(C)CCSC(N)=N3)c2)s1 [Compound 532] | ≤ 1 µM | – |
| COCCOc1nccnc1C(=O)Nc1ccc(F)c([C@]2(C)CCSC(N)=N2)c1 [Compound 45] | ≤ 1 µM | – |
| CN(C)CC#CCOc1ccc(C(=O)Nc2ccc(F)c([C@]3(C)CCSC(N)=N3)c2)nc1 [Compound 570] | ≤ 1 µM | – |
| COc1cnc(C(=O)Nc2ccnc([C@]3(C)CC(C)(C)SC(N)=N3)c2)c(C)c1 [Compound 685] | ≤ 1 µM | – |
| C/C=C/COc1cnc(C(=O)Nc2cccc([C@]3(C)CCSC(N)=N3)c2)cn1 [Compound 83] | ≤ 1 µM | – |
| C[C@@]1(c2cc(NC(=O)c3ccc(OCC#CCCl)cn3)ccc2F)CCSC(N)=N1 [Compound 573] | ≤ 1 µM | – |
| Cn1nc(Cl)cc1C(=O)Nc1cncc([C@]2(C)CCSC(N)=N2)c1 [Compound 478] | – | IC50 (Table 140, read-out: IC50): 0.08 µM |
| Cc1cc(C(=O)Nc2ccc(F)c([C@]3(C)CCSC(N)=N3)c2)on1 [Compound 19] | ≤ 1 µM | – |
| CC(=O)c1ccc(C(=O)Nc2ccc(F)c([C@]3(C)CCSC(N)=N3)c2)s1 [Compound 530] | – | IC50 (Table 140, read-out: IC50): 0.09 µM |
| Cc1ccc(C(=O)Nc2cncc([C@]3(C)CCSC(N)=N3)c2)s1 [Compound 485] | ≤ 1 µM | – |
| CN1N=C(C(=O)Nc2ccc(F)c([C@]3(C)CCSC(N)=N3)c2)CCC1=O [Compound 475] | ≤ 1 µM | – |
| C[C@@]1(c2cccc(NC(=O)c3cnc(OCCF)cn3)c2)CCSC(N)=N1 [Compound 565] | ≤ 1 µM | – |
| C=C(C)COc1cnc(C(=O)Nc2cccc([C@]3(C)CCSC(N)=N3)c2)cn1 [Compound 109] | – | IC50 (Table 139, read-out: IC50): 0.1 µM |
| C[C@@]1(c2cc(NC(=O)c3ncccc3F)ccn2)CCSC(N)=N1 [Compound 613] | ≤ 1 µM | – |
| C[C@@]1(c2cc(NC(=O)c3coc(CCl)n3)ccc2F)CCSC(N)=N1 [Compound 470] | ≤ 1 µM | – |
| Cc1noc(C)c1-c1cnc(C(=O)Nc2ccc(F)c([C@]3(C)CCSC(N)=N3)c2)cn1 [Compound 523] | ≤ 1 µM | – |
| C[C@@]1(c2cc(NC(=O)c3ncc(O)cc3F)ccc2F)CCSC(N)=N1 [Compound 491] | – | IC50 (Table 140, read-out: IC50): 0.09 µM |
| COCCOCCOc1cnc(C(=O)Nc2ccc(F)c([C@]3(C)CCSC(N)=N3)c2)cn1 [Compound 164] | – | IC50 (Table 139, read-out: IC50): 0.08 µM |

| SMILES | IC50 [1] | other results |
| --- | --- | --- |
| Cc1cnc(C(=O)Nc2ccc(F)c([C@@]3(C)N=C(N)SCC34CC4)c2)cn1 [Compound 674] | – | IC50 (Table 141, read-out: IC50): 0.01 µM |
| CC#CCOc1cnc(C(=O)Nc2cc([C@]3(C)CCSC(N)=N3)c3oc(C)cc3c2)cn1 [Compound 469] | ≤ 1 µM | – |
| C[C@@]1(c2cc(NC(=O)c3cnc(Cl)cn3)ccc2Br)CCSC(N)=N1 [Compound 517] | – | IC50 (Table 140, read-out: IC50): 0.13 µM |
| C[C@@]1(c2cc(NC(=O)c3ccc(Cl)cn3)ccn2)CCSC(N)=N1 [Compound 552] | ≤ 1 µM | – |
| COCCOc1cnc(C(=O)Nc2ccc(F)c([C@]3(C)CCSC(N)=N3)c2)c(N)n1 [Compound 46] | ≤ 1 µM | – |
| Cc1nc(C(=O)Nc2cncc([C@]3(C)CCSC(N)=N3)c2)c(C(F)(F)F)o1 [Compound 501] | ≤ 1 µM | – |
| C[C@@]1(c2cccc(NC(=O)c3ccc(OCc4ccccc4)cn3)c2)CCSC(N)=N1 [Compound 102] | ≤ 1 µM | – |
| CCc1cc(C(=O)Nc2ccc(F)c([C@]3(C)CCSC(N)=N3)c2)on1 [Compound 495] | ≤ 1 µM | – |
| Cc1cccnc1C(=O)Nc1ccc(F)c([C@]2(C)CCSC(N)=N2)c1 [Compound 503] | ≤ 1 µM | – |
| CC1(C)CSC(N)=N[C@]1(C)c1cc(NC(=O)c2ncccc2F)ccc1F [Compound 661] | ≤ 1 µM | – |
| C[C@@]1(c2cc(NC(=O)c3cc4ccccc4s3)ccc2F)CCSC(N)=N1 [Compound 545] | ≤ 1 µM | – |
| C[C@@]1(c2cc(NC(=O)c3cc4cc(C(F)(F)F)ccc4s3)ccc2F)CCSC(N)=N1 [Compound 546] | ≤ 1 µM | – |
| Cc1nc(C(=O)Nc2ccc(F)c([C@]3(C)CCSC(N)=N3)c2)c(C)o1 [Compound 554] | ≤ 1 µM | – |
| Cc1nc(C(=O)Nc2ccc(F)c([C@]3(C)CCSC(N)=N3)c2)co1 [Compound 462] | ≤ 1 µM | – |
| COc1cnc(C(=O)Nc2cncc([C@]3(C)CC(C)(C)SC(N)=N3)c2)cn1 [Compound 560] | ≤ 1 µM | – |
| CC#CCOc1cnc(C(=O)Nc2cc([C@]3(C)CCSC(N)=N3)ccn2)cn1 [Compound 596] | ≤ 1 µM | – |
| CC1(C)C[C@@](C)(c2cc(NC(=O)c3ncc(C(F)(F)F)cc3Cl)ccn2)N=C(N)S1 [Compound 656] | ≤ 1 µM | – |
| C[C@@]1(c2cc(NC(=O)c3cnc(/C=C/CO)cn3)ccc2F)CCSC(N)=N1 [Compound 162] | ≤ 1 µM | – |
| C[C@@]1(c2cc(NC(=O)c3ccc(OCC(N)=O)cn3)ccc2F)CCSC(N)=N1 [Compound 559] | – | IC50 (Table 140, read-out: IC50): 0.42 µM |
| C#CCOc1cnc(C(=O)Nc2ccnc([C@]3(C)CC(C)(C)SC(N)=N3)c2)cn1 [Compound 657] | ≤ 1 µM | – |
| CCOCCOc1cnc(C(=O)Nc2cccc([C@]3(C)CCSC(N)=N3)c2)cn1 [Compound 81] | ≤ 1 µM | – |
| COCCOc1cnc(C(=O)Nc2cccc(C3(C)CCSC(N)=N3)c2)cn1 (stereo not shown) [Compound 62] | – | IC50 (Table 139, read-out: IC50): 0.17 µM |
| Cc1cc(C(=O)Nc2ccc(F)c([C@]3(C)CCSC(N)=N3)c2)ns1 [Compound 507] | ≤ 1 µM | – |
| C[C@@]1(c2cc(NC(=O)c3ncccc3F)ccc2F)CCSC(N)=N1 [Compound 510] | ≤ 1 µM | – |
| COc1cnc(C(=O)Nc2cncc([C@]3(C)CCSC(N)=N3)c2)cn1 [Compound 547] | ≤ 1 µM | – |
| COCCOc1ccc(C(=O)Nc2ccc(F)c([C@]3(C)CCSC(N)=N3)c2)nc1 [Compound 93] | – | IC50 (Table 139, read-out: IC50): 0.08 µM |
| Cc1cc(C(=O)Nc2cccc([C@]3(C)CCSC(N)=N3)c2)c(C)s1 [Compound 11] | – | IC50 (Table 139, read-out: IC50): 0.17 µM |

| SMILES | IC50 [1] | other results |
| --- | --- | --- |
| CC(C)COc1cnc(C(=O)Nc2cccc([C@]3(C)CCSC(N)=N3)c2)cn1 [Compound 87] | – | IC50 (Table 139, read-out: IC50): 0.09 µM |
| COCCCOc1ccc(C(=O)Nc2cccc([C@]3(C)CCSC(N)=N3)c2)nc1 [Compound 96] | ≤ 1 µM | – |
| COc1cnc(C(=O)Nc2ccc(F)c([C@]3(C)CC(C)(C)SC(N)=N3)c2)cn1 [Compound 600] | ≤ 1 µM | – |
| Cc1cnn(-c2cnc(C(=O)Nc3ccc(F)c([C@]4(C)CCSC(N)=N4)c3)cn2)c1 [Compound 577] | – | IC50 (Table 140, read-out: IC50): 0.03 µM |
| COc1cnc(C(=O)Nc2ccc(F)c([C@@]3(C)N=C(N)SC[C@H]3OCc3ccccc3)c2)cn1 [Compound 684] | ≤ 1 µM | – |
| CSc1ccc(NC(=O)c2cnc(C)cn2)cc1[C@]1(C)CCSC(N)=N1 [Compound 21] | ≤ 1 µM | – |
| CC#CCNc1cnc(C(=O)Nc2ccc(F)c([C@]3(C)CCSC(N)=N3)c2)cn1 [Compound 120] | ≤ 1 µM | – |
| C[C@@]1(c2cc(NC(=O)CCc3ccc(O)c(O)c3)ccc2F)CCSC(N)=N1 [Compound 155] | – | IC50 (Table 139, read-out: IC50): 5.96 µM |
| C[C@@]1(c2cc(NC(=O)c3coc(Cl)n3)ccc2F)CCSC(N)=N1 [Compound 467] | ≤ 1 µM | – |
| CSc1ccc(C(=O)Nc2ccc(F)c([C@]3(C)CCSC(N)=N3)c2)s1 [Compound 38] | – | IC50 (Table 139, read-out: IC50): 0.14 µM |
| COc1cnc(C(=O)Nc2ccc(F)c([C@]3(C)CCSC(N)=N3)c2)c(C)c1 [Compound 602] | ≤ 1 µM | – |
| C[C@@]1(c2cc(NC(=O)c3nccnc3Cl)ccc2F)CCSC(N)=N1 [Compound 84] | ≤ 1 µM | – |
| CSCCOc1cnc(C(=O)Nc2cccc([C@]3(C)CCSC(N)=N3)c2)cn1 [Compound 76] | – | IC50 (Table 139, read-out: IC50): 0.18 µM |
| Cc1nc(C(=O)Nc2cncc([C@]3(C)CCSC(N)=N3)c2)c(C)o1 [Compound 461] | – | IC50 (Table 140, read-out: IC50): 0.03 µM |
| C#Cc1cn2cc(C(=O)Nc3ccnc([C@]4(C)CCSC(N)=N4)c3)ncc2n1 [Compound 700] | ≤ 1 µM | – |
| C#CCOc1cnc(C(=O)Nc2ccc(F)c([C@@]3(C)N=C(N)SCC34CC4)c2)cn1 [Compound 676] | ≤ 1 µM | – |
| Cc1cnc(C(=O)Nc2cc([C@]3(C)CCSC(N)=N3)ccn2)cn1 [Compound 593] | – | IC50 (Table 140, read-out: IC50): 0.28 µM |
| C[C@@]1(c2cc(NC(=O)c3ccc(Cl)nn3)ccc2F)CCSC(N)=N1 [Compound 490] | ≤ 1 µM | – |
| C#CCOc1cnc(C(=O)Nc2ccc(F)c([C@]3(C)CCSC(N)=N3)c2)cn1 [Compound 133] | ≤ 1 µM | – |
| C[C@@]1(c2cc(NC(=O)c3cc4ccccc4[nH]3)ccc2F)CCSC(N)=N1 [Compound 536] | ≤ 1 µM | – |
| COc1cnc(C(=O)Nc2cccc([C@]3(C)CCSC(N)=N3)c2)cn1 [Compound 29] | ≤ 1 µM | – |
| C[C@@]1(c2cc(NC(=O)c3cnc(-c4ccc[nH]4)cn3)ccc2F)CCSC(N)=N1 [Compound 509] | ≤ 1 µM | – |
| CC1(C)C[C@@](C)(c2cc(NC(=O)c3ncc(Cl)cc3Cl)ccn2)N=C(N)S1 [Compound 686] | ≤ 1 µM | – |
| COc1cnc(C(=O)Nc2cncc([C@]3(C)CCSC(N)=N3)c2)c(C)c1 [Compound 564] | ≤ 1 µM | – |
| C[C@@]1(c2cccc(NC(=O)c3cnc(OCC(F)(F)F)cn3)c2)CCSC(N)=N1 [Compound 82] | ≤ 1 µM | – |
